Experimental data published in PubChem BioAssay (NCI).
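Growth conditions: 96-well plates. Treatment: test compound, 48 hours, 5 concentrations. Analysis: linear interpolation between bracketing concentrations; unreached endpoints set to highest concentration. TGI: total growth inhibition.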

Experiments:
Assay in all cases: NCI tumour cell line growth inhibition, 48 h
SNB-19 CNS = system: SNB-19 CNS
OVCAR-4 ovarian = system: OVCAR-4 ovarian
OVCAR-8 ovarian = system: OVCAR-8 ovarian
K-562 leukemia = system: K-562 leukemia
NCI-H23 lung = system: NCI-H23 lung
PC-3 prostate = system: PC-3 prostate
SF-295 CNS = system: SF-295 CNS
HT29 colon = system: HT29 colon
SK-MEL-2 melanoma = system: SK-MEL-2 melanoma
NCI-H226 lung = system: NCI-H226 lung
CCRF-CEM leukemia = system: CCRF-CEM leukemia
MDA-MB-435 = system: MDA-MB-435
SN12C renal = system: SN12C renal
RPMI-8226 leukemia = system: RPMI-8226 leukemia
HCC-2998 colon = system: HCC-2998 colon
BT-549 breast = system: BT-549 breast
SK-OV-3 ovarian = system: SK-OV-3 ovarian
M14 melanoma = system: M14 melanoma
SF-539 CNS = system: SF-539 CNS

Measured: TGI

COc1ccc([C@]23CCN(S(=O)(=O)c4ccc(C)cc4)[C@H]2[C@H](CO)C2(CC3)OCC(C)(C)CO2)cc1OC
not listed: SF-539 CNS
> 100 µM: all other assays above

CC1(C)CCC[C@]2(C)[C@@H]1CC[C@@]13O[C@@H]1C1=C(CO)C(=O)OC1=C[C@@H]23
62.8 µM: RPMI-8226 leukemia
29.6 µM: HT29 colon
30.2 µM: NCI-H226 lung
53.8 µM: SK-MEL-2 melanoma
33.9 µM: M14 melanoma
61.5 µM: MDA-MB-435
46.5 µM: NCI-H23 lung | SK-OV-3 ovarian
28.7 µM: SNB-19 CNS
46.7 µM: HCC-2998 colon
25.9 µM: SN12C renal
57.4 µM: PC-3 prostate
55.9 µM: OVCAR-4 ovarian
> 100 µM: K-562 leukemia
51 µM: BT-549 breast
44.9 µM: SF-295 CNS

O=c1oc2ccccc2c(O)c1C(c1ccc2c(c1)Cc1ccccc1-2)c1c(O)c2ccccc2oc1=O
41.2 µM: SN12C renal
69.5 µM: NCI-H23 lung
77.4 µM: MDA-MB-435
53.6 µM: BT-549 breast
41 µM: M14 melanoma
33.6 µM: HCC-2998 colon
57.4 µM: SF-295 CNS
90.8 µM: SK-OV-3 ovarian
43.5 µM: SF-539 CNS
74.2 µM: SK-MEL-2 melanoma
not listed: K-562 leukemia
> 100 µM: all other assays above

NC(=S)N/N=c1\cc(C(=O)Nc2ccc([N+](=O)[O-])cc2[N+](=O)[O-])oc2ccccc12
not listed: K-562 leukemia | RPMI-8226 leukemia
> 100 µM: all other assays above

CCNc1nc2c(ncn2C2CC(O)C(COP(=O)(O)O)O2)c(=O)[nH]1 (configuration not stated)
not listed: K-562 leukemia | CCRF-CEM leukemia
> 100 µM: all other assays above

COc1ccc2c(c1)CCC1=C/C(=N\NC(N)=O)CCC12C (configuration not stated)
not listed: SK-MEL-2 melanoma | NCI-H226 lung
> 10 µM: all other assays above

Cc1ccc(CC(Cc2ccc(C)cc2C(=O)O)C(=O)O)cc1 (configuration not stated)
not listed: K-562 leukemia
> 100 µM: all other assays above

CC(=O)C(=[N+]=[N-])C(=O)OCCOC(=O)C(=[N+]=[N-])C(C)=O
not listed: OVCAR-4 ovarian
> 1 µM: all other assays above

CC(C)(CC#N)c1cc(CC(C)(C)c2cc(CC(C)(C)c3cc(C(C)(C)C4(C)OCCO4)no3)no2)no1
77.7 µM: SNB-19 CNS
91 µM: OVCAR-4 ovarian
not listed: SF-539 CNS
> 100 µM: all other assays above

COc1cc2ccc1OCc1cccc(n1)COc1ccc(cc1OC)C=Nc1ccc(cc1)-c1ccc(cc1)N=C2
not listed: RPMI-8226 leukemia
> 100 µM: all other assays above

O=C(NCCNCCNC(=O)C(F)(F)F)C(F)(F)F
not listed: SF-539 CNS
> 100 µM: all other assays above

CC(=O)Oc1cc(C)c(OC(C)=O)c2c1[C@H]1CC[C@]3(C)[C@@H](OC(C)=O)CC[C@H]3[C@@H]1CC2
26.9 µM: PC-3 prostate | HCC-2998 colon
46.2 µM: HT29 colon
30.7 µM: BT-549 breast
43.5 µM: CCRF-CEM leukemia
37.2 µM: SF-295 CNS
34.8 µM: NCI-H23 lung
27.7 µM: MDA-MB-435
35.4 µM: SF-539 CNS
30.2 µM: M14 melanoma
86.1 µM: K-562 leukemia
32.2 µM: SNB-19 CNS
59.2 µM: RPMI-8226 leukemia
33.2 µM: SN12C renal
44.7 µM: OVCAR-8 ovarian

C[N+](C)(C)CC(=O)N/N=C(/CC1OC(=O)c2ccccc21)c1ccccc1O (configuration not stated)
57.4 µM: NCI-H226 lung
85.4 µM: NCI-H23 lung
22.1 µM: RPMI-8226 leukemia
82 µM: OVCAR-8 ovarian
62.3 µM: SF-539 CNS
49.3 µM: CCRF-CEM leukemia
95.7 µM: BT-549 breast
97.8 µM: MDA-MB-435
50.9 µM: HCC-2998 colon
not listed: K-562 leukemia
> 100 µM: all other assays above

CCOP(=O)(OCC)[C@]12C[C@@H](C)C=C[C@H]1COC2=O
not listed: HT29 colon | NCI-H226 lung
> 100 µM: all other assays above

CCOC(=O)C1=COC(C)(c2ccccc2)CC1=O (configuration not stated)
not listed: NCI-H226 lung | CCRF-CEM leukemia
> 100 µM: all other assays above

C/C(=N\Nc1nc2ccccc2o1)c1cc(C)ncn1
> 43.7 µM: NCI-H23 lung
2.5 µM: SK-OV-3 ovarian
0.0519 µM: OVCAR-8 ovarian
> 48.6 µM: HCC-2998 colon
> 34.7 µM: M14 melanoma
14.8 µM: HT29 colon
5.77 µM: SF-539 CNS
27.5 µM: OVCAR-4 ovarian
32.7 µM: SK-MEL-2 melanoma
not listed: SF-295 CNS | NCI-H226 lung
> 100 µM: all other assays above

Cn1c2ccccc2c2nc3ccccc3c(Cl)c21
not listed: HCC-2998 colon
> 100 µM: all other assays above

Nc1cc(N2CCOCC2)nc(=O)n1-c1ccc(Cl)cc1
not listed: OVCAR-4 ovarian
> 100 µM: all other assays above

COC(=O)c1ccccc1C1CN=NC12Cc1cc(C)c(C)cc1C2=O (configuration not stated)
not listed: RPMI-8226 leukemia
> 100 µM: all other assays above

COC(=O)c1nc(-c2nc(CCNC(=O)OC(C)(C)C)sc2Cl)sc1Cl
not listed: OVCAR-4 ovarian | SK-MEL-2 melanoma | SN12C renal
> 100 µM: all other assays above
